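Five compound concentrations were applied to cells in 96-well plates for 48 hours; endpoints were derived by simple linear interpolation of the resulting dose-response curve. At the GI50, growth is halved. The concentration for full growth arrest is given as TGI.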
Assays:
Test in all cases: inhibition of tumour cell growth, NCI panel, 48 h
[1] = tested on: ACHN renal
[2] = tested on: SK-MEL-2 melanoma
[3] = tested on: MCF7 breast
[4] = tested on: SK-MEL-5 melanoma
[5] = tested on: OVCAR-3 ovarian
[6] = tested on: BT-549 breast
[7] = tested on: HT29 colon
[8] = tested on: SN12C renal
[9] = tested on: HL-60(TB) leukemia
[10] = tested on: SR leukemia

Structure (SMILES) | TGI [1] [µM] | TGI [2] [µM] | TGI [3] [µM] | TGI [4] [µM] | TGI [5] [µM] | TGI [6] [µM] | TGI [7] [µM] | TGI [8] [µM] | TGI [9] [µM] | TGI [10] [µM] | GI50 [8] [µM] | GI50 [2] [µM] | GI50 [3] [µM] | GI50 [4] [µM] | GI50 [5] [µM] | GI50 [9] [µM] | GI50 [7] [µM] | GI50 [1] [µM] | GI50 [6] [µM]
COC(=O)C1CC(C=O)=C(SC)N1 (stereo not drawn) | > 50 | > 50 | > 50 | > 50 | > 50 | > 50 | > 50 |  |  |  |  |  |  |  |  |  |  |  | 
Cc1ccc(Oc2cc(C)ccc2P(=O)(O)O)cc1 |  | > 100 | > 100 | > 100 | > 100 | > 100 |  | > 100 | > 100 |  |  |  |  |  |  |  |  |  | 
C[N+](C)(C)c1nc(N)nc2c1ncn2C1OC(CO)C(O)C1O (stereo not drawn) | > 100 | > 100 | > 100 | > 100 | > 100 | > 100 | > 100 | > 100 |  | > 100 |  |  |  |  |  |  |  |  | 
O.O=[Se](=O)(O)O.[NH-]C1CCCCC1[NH-].[Pt+2] (stereo not drawn) |  | > 100 | > 47.1 | 15.6 | > 81.9 |  | > 100 | > 100 | 33.8 |  | 23.3 | 22.9 | 3.49 | 7.4 | 21.2 | 3.22 | 4.62 |  | 
CC1=NN(C(=O)Cc2ccccc2)C(=O)/C1=C\c1cccc(O)c1 | > 100 | > 100 |  | > 100 | > 100 |  | > 100 | > 100 | > 100 | > 100 |  |  |  |  |  |  |  |  | 
Cc1cc(Br)cc(C)c1NC(=O)C(=O)C(C(=O)c1ccc(Cl)c(Cl)c1)C1OC(=O)c2ccccc21 (stereo not drawn) | > 100 | > 100 |  |  | > 100 |  | > 100 | > 100 | > 100 | > 100 |  |  |  |  |  |  |  |  | 
NC(=S)NS(=O)(=O)c1ccc(Cl)cc1Cl | > 100 | > 100 |  | > 100 | > 100 | > 100 | > 100 | > 100 | > 100 |  |  |  |  |  |  |  |  |  | 
CC(=O)Oc1ccc(-c2c(OC(C)=O)c(OC(C)=O)c(-c3ccc(OC(C)=O)c(OC(C)=O)c3)c(OC(C)=O)c2OC(C)=O)cc1 | 30.8 | 29.9 | 50.6 | 25.5 | 30 |  | 36.1 | 35.1 | 43.7 | 49.7 |  |  |  |  |  |  |  |  | 
Clc1cccc(Cl)c1C1ON=C(c2ccccc2)N1C12CC3CC(CC(C3)C1)C2 (stereo not drawn) | > 100 | 71 | > 100 | 12.1 | 74.7 |  | > 100 | > 100 | 8.72 | > 100 |  |  |  |  |  |  |  |  | 
O=[N+]([O-])c1ccc(-c2nc3ccccc3o2)cc1 | > 100 | > 100 | > 100 | > 100 | > 100 | > 100 |  | > 100 |  | > 100 |  |  |  |  |  |  |  |  | 
COc1ccc(CNc2cnc3cc(N)ccc3n2)cc1OC | > 100 | > 100 |  | > 100 | > 100 |  | > 100 | > 100 | > 100 | > 100 |  |  |  |  |  |  |  |  | 
NC(Cc1ccccc1)C(=O)O (stereo not drawn) | > 100 | > 100 | > 100 | > 100 | > 100 | > 100 | > 100 | > 100 | > 100 |  |  |  |  |  |  |  |  |  | 
COc1ccc(/C(Cl)=C(\C=O)c2ccc(Cl)cc2)cc1 | 21.2 | 54.6 |  | 32.6 | 32.1 |  | 15.6 | 13.6 | 16.6 | 6.7 |  |  |  |  |  |  |  |  | 
COc1cccc2c1C(=O)c1c(O)c3c(c(O)c1C2=O)C[C@](O)(C(=O)CO)CC3OC1CC(N)C(OC2CCCCO2)C(C)O1 (stereo partly drawn) |  | 2.43 | 12.1 | 1.34 | 4.56 |  | 4.52 | 3.12 | 0.294 |  |  |  |  |  |  |  |  |  | 
CCOC(=O)Cn1c(C)nc2nn(Cc3ccccc3)cc2c1=O | > 100 | > 100 | > 100 | > 100 | > 100 | > 100 | > 100 | > 100 |  |  |  |  |  |  |  |  |  |  | 
NCCCN1CCN(CCCNc2ccc3ncn4c5ccccc5c(=O)c2c34)CC1 | 13.9 | 13.3 | > 25 | 4.38 | > 25 |  | 6.7 | 3.68 | 10.1 | > 25 |  |  |  |  |  |  |  |  | 
Cc1ccc(NC(=O)NC23CC4CC(CC(F)(C4)C2)C3)cc1 | > 100 | > 100 |  | > 100 | > 100 |  | > 100 |  | > 100 |  |  |  |  |  |  |  |  |  | 
CC(=O)Nc1[nH]c(=O)[nH]c(=O)c1N(C(C)=O)C(C)=O | > 100 | > 100 |  | > 100 | > 100 |  | > 100 | > 100 | > 100 |  |  |  |  |  |  |  |  |  | 
C=C1C(=O)OC2C1CC1OC2C(C)CCC/C(C)=C\CCC1(C)O (stereo not drawn) |  | 32.7 | 57.4 | 12.4 | 32.6 |  | > 91.1 | 62.5 | 21.2 |  |  |  |  |  |  |  |  |  | 

Structure (SMILES) | TGI [1] [µM] | TGI [2] [µM] | TGI [3] [µM] | TGI [4] [µM] | TGI [5] [µM] | TGI [6] [µM] | TGI [7] [µM] | TGI [8] [µM] | TGI [9] [µM] | TGI [10] [µM] | GI50 [8] [µM] | GI50 [2] [µM] | GI50 [3] [µM] | GI50 [4] [µM] | GI50 [5] [µM] | GI50 [9] [µM] | GI50 [7] [µM] | GI50 [1] [µM] | GI50 [6] [µM]
O=C(NNc1ccc([N+](=O)[O-])cc1)C1OC(CO)C(O)C1O (stereo not drawn) | > 100 | > 100 |  | > 100 | > 100 |  | > 100 | > 100 | > 100 |  |  |  |  |  |  |  |  |  | 
O=c1c2cc(Cl)ccc2n2nnc3ccc(NCCNCCO)c1c32 | 2.43 | 5.01 | 9.46 | 2.86 | 4.16 | 5.22 | 2.74 | 2.88 | 9.77 |  |  |  |  |  |  |  |  |  | 
Nc1ncc(Cc2nn3c(COc4ccc(Cl)cc4)nnc3s2)s1 | 14 | > 100 | > 100 | > 100 | > 100 |  | > 100 | > 100 | > 100 | > 100 |  |  |  |  |  |  |  |  | 
Brc1ccc2[nH]cc(-c3nc(-c4c[nH]c5ccncc45)cs3)c2c1 | 3.16 | 3.72 |  | 2.98 |  |  |  | 3.32 |  |  | 1.79 | 1.92 |  | 1.61 |  |  |  | 1.77 | 
C#Cc1ccccc1C(=O)OC | > 100 | > 100 |  | > 100 | > 100 |  | > 100 | > 100 | > 100 | > 100 |  |  |  |  |  |  |  |  | 
CC1Oc2c(c(O)cc3oc(=O)cc(-c4ccccc4)c23)C(=O)C1C (stereo not drawn) | > 100 | > 100 |  | > 100 | > 100 |  |  | > 100 | > 100 |  |  |  |  |  |  |  |  |  | 
CN(CCc1ccccn1)C(=S)N/N=C/c1ccccn1 | 1.41 | 0.27 | > 100 | 0.902 | 25.9 |  | 43.1 | > 36.2 | < 0.01 | < 0.01 |  |  |  |  |  |  |  |  | 
C[C@@H](CC(O)C(O)C(C)(C)O)C1CCC23CC12CCC1[C@@]2(C)CCC(=O)C(C)(C)C2CC(OC2OC(CO)C(O)C(O)C2O)[C@]13C (stereo partly drawn) | > 10 | > 10 | > 10 | > 10 | > 10 | > 10 | > 10 | > 10 | > 10 |  |  |  |  |  |  |  |  |  | 
Cn1c(=O)c2[nH]cnc2n(C)c1=O | > 100 | > 100 | > 100 | > 100 | > 100 |  |  | > 100 | > 100 | > 100 |  |  |  |  |  |  |  |  | 
NC(=O)Nc1n[nH]c(-c2ccccc2)n1 | > 100 | > 100 | > 100 | > 100 | > 100 | > 100 | > 100 | > 100 | > 100 |  |  |  |  |  |  |  |  |  | 
CC(=O)Nc1oc(C)nc1C#N | > 100 | > 100 | > 100 | > 100 |  |  | > 100 | > 100 | > 100 | > 100 |  |  |  |  |  |  |  |  | 
O=C(c1ccccc1)c1ccc2c(c1)N=C(c1ccc(Cl)c(Cl)c1)CC(c1ccc3ccccc3c1)N2 (stereo not drawn) | > 100 | > 100 |  | > 100 |  |  | > 100 | > 100 | > 100 | > 100 |  |  |  |  |  |  |  |  | 
CN(c1ccccc1)c1c(-c2ccccc2)c(=O)oc2c1ccc1occc12 |  | > 100 | > 100 | > 100 | > 100 |  | > 100 | > 100 | > 100 |  |  |  |  |  |  |  |  |  | 
CCCCCCCCCC[C@@H](O)[C@H]1CC[C@@H]([C@H]2CC[C@H]([C@H](O)CCCCCCCCCC[C@@H]3CC(CC(C)=O)C(=O)O3)O2)O1 (stereo partly drawn) |  | 59.9 | > 100 | 16.2 | 39.4 |  |  |  |  |  | 26.7 | 21.5 | 19.8 |  | 18.1 |  |  | 14.6 | 23.7
OCC(CO)CC1COc2ccccc2O1 (stereo not drawn) | > 10 | > 10 | > 10 | > 10 | > 10 |  | > 10 | > 10 | > 10 | > 10 |  |  |  |  |  |  |  |  | 
CC(=O)N/N=C1\NN(C(C)=O)C2(S1)C(=O)Nc1ccccc12 (stereo not drawn) | > 100 | > 100 | > 100 | > 100 | > 100 |  | > 100 | > 100 | > 100 | > 100 |  |  |  |  |  |  |  |  | 
CC12CC(=O)NN=C1c1ccccc1C2 (stereo not drawn) | > 100 | > 100 |  | > 100 | > 100 |  | > 100 | > 100 | > 100 |  |  |  |  |  |  |  |  |  | 
c1csc(-c2csc(-c3cccs3)c2)c1 | > 100 | 41.1 | 75.2 | 38.8 | > 100 |  | > 100 | > 100 | > 100 | 66.8 |  |  |  |  |  |  |  |  | 
